Reference: patent publication US10066004B2 (ARIZONA CANCER THERAPEUTICS, LLC, priority 2010, dated 2018)
Read-outs that look alike come from different tables or passages of the source. Positions of bridges follow the written chain, without caps; N, C: chain ends. Non-standard residues stand in square brackets, D forms with d. Residues, ends and D or L forms follow the SMILES beside them. No end group written: not given here. R8 = C=CCCCCCC[C@@](C)(N)C(=O)O; S5 = C=CCCC[C@](C)(N)C(=O)O

Experiments:
Peptide solubility = assay type: physicochemical
Method: The EJ peptides were synthesized by GenScript (Scotch Plains, N.J.), delivered lyophilized, and stored at −20° C. Peptides were resuspended as needed at 1 mmol/1 in water and stored for up to 2 weeks at 4° C. EJ1 peptide sequences are shown conjugated to the PTD4 domain ([…] (SEQ ID NO: 110)) in FIG. 6c.

SKOV3 cells = experiment: MTT killing of erbB2 positive ovarian cancer cells, one hour treatment; assay type: cell-based
Method: The erbB2 positive ovarian cancer cell line, SKOV3 was treated with SAH5-EJ1 for one hour with concentrations between 10 uM and 40 uM.

MDA-MB-468 cells = settings: MDA-MB-468, 20 uM peptide, 3 days (FIG. 1)
Method: Inhibitor peptides were evaluated on their ability to inhibit growth of triple-negative breast cancer cells MDA-MB-468 (20 uM peptide treatment). […] SEQ ID NO: 13 is […] SEQ ID NO: 14 is […] SEQ ID NO: 15 is […] SEQ ID NO: 16 is […] SEQ ID NO: 17 is […] SEQ ID NO: 18 is […] SEQ ID NO: 19 is […] SEQ ID NO: 20 is […] SEQ ID NO: 21 is […] SEQ ID NO: 22 is […] SEQ ID NO: 23 is […] SEQ ID NO: 24 is […] SEQ ID NO: 25 is […]
(§1) Peptide designations are indicated in the right column. Changes from EJ1 in EJ2-11 are denoted in the second column from the right. (d-j) Cell lines were treated daily with 20 μmol/l EJ1, 20 μmol/l CP, or vehicle (water) for 3 days unless otherwise noted, and cell viability was determined by the MTT assay. Growth rates for vehicle-treated cells were set to 100%, and CP and EJ1 rates were adjusted accordingly. *P<0.05, **P<0.01, ***P<0.001 (Student's t-test). Error bars, mean±SD. (From Hart et al., 2013, Molecular Therapy 21(11):1996-2007, the disclosure of which is incorporated herein in its entirety.)
To do this, we created cell-penetrating peptides to act as dominant-negative “decoys,” thereby inhibiting endogenous jxm interactions. Peptides specific for jxm subdomains were synthesized downstream of the protein transduction domain-4 (PTD4; FIG. 6). Next, the effect of peptide treatment on cell viability was analyzed on the breast cancer cell line MDA-MB-468 by MTT (3-[4,5-dimethylthiazol-2-yl]-2,5-diphenyl tetra-zolium bromide) analysis after 3 days of treatment.
(§2) Protein lysate preparation, immunoprecipitation, and western blotting were performed as described previously. For cross-linking, cells were first incubated according to manufacturer instructions with 3 μmol/l DMS, a membrane-permeable, noncleavable, cross-linking agent (Thermo Scientific, Waltham, Mass.). Cells were analyzed both by the MTT assay following manufacturer's instructions (Sigma) and using a U-Quant Spectrophotometer (Bio-TEK Instruments, Winooski, Vt.).

T47D cells = settings: human, 3 day, 20 μmol/l
Method: as §1, §2

AsPC1 cells = settings: human, 3 day, 20 μmol/l
Method: as §1, §2

MDA-MB-231 cells = settings: human, 3 day, 20 μmol/l
Method: as §1, §2

MIA PaCa-2 cells = settings: human, 3 day, 20 μmol/l
Method: as §1, §2

[1] = system: MMTV-pyMT murine model of breast cancer; experiment: Tumor growth and lung metastasis in MMTV-pyMT transgenic mice; assay type: in vivo, mouse; settings: 20 μg/g body weight i.p. daily
Method: (a) MMTV-PyMT mice were allowed to develop tumors of 50 mm^3 before being treated once daily (i.p. injection) with indicated doses of Ctrls (20 μg/g CP5 (n=3), PBS (n=2)) and EJ1 (10 μg/g (n=6), 15 μg/g (n=1), and 20 μg/g (n=7), or twice-daily doses of 40 μg/g (n=3)). Peaks represent average total tumor burden growth rate in mm^3 per day for each treatment. Error bars, mean±SD. *P<0.05; **P<0.005, Student's t-test. (b) Control (12 mice (20 μg/g CP5 (n=5), PBS (n=7), n=100 tumors) vs. 20 μg/g EJ1-treated (eight mice, n=72 tumors) individual tumor growth rates and representative tumor images (insets). Mean denoted by horizontal line. **P<0.005, Student's t-test. (c) Mice were treated with 10, 15, or 20 μg/g body weight EJ1 or control for 21 days and tumors were measured twice weekly. Box plots are shown for day 0 (10 μg/g EJ1: n=6 mice, 21 tumors; 15 μg/g EJ1: n=1 mouse, two tumors; 20 μg/g EJ1: n=8 mice, 24 tumors; Ctrls: n=12 mice, 41 tumors) and final day (10 μg/g EJ1: n=6 mice, 46 tumors; 15 μg/g EJ1: n=1 mouse, nine tumors; 20 μg/g EJ1: n=8 mice, 72 tumors; Ctrls: n=12 mice, 100 tumors). […]
Additionally, many resected EJ1-treated tumors were necrotic in appearance compared with those in controls (FIG. 11b (insets)). […] The MMTV-pyMT transgenic mice present with lung metastasis; we therefore evaluated the effects of EJ1 on lung metastasis. […]

GBM tumors = experiment: In vivo tumor growth, daily subcutaneous injections of SAH-EJ1; parameters: species or system mice; settings: 10 mg/kg daily subcutaneous, vs control mouse
Description: (§3) EGFR is amplified or mutated in more than 40% of glioblastoma multiforme (GBM) tumors. Referring to FIG. 13-14, inhibitor peptides of the present invention were used to treat GBM cells and tumors.

[2] = system: patient-derived glioma lines (BT145, BT147, GB16, GB7, GB42); experiment: Viability of patient-derived GBM cells; assay type: cell-based
Description: FIG. 13A and FIG. 13B show treatment of patient-derived GBM cells with various EGFR inhibitor peptides.
as §3

Ecyl EGFR peptide = experiment: ITC binding experiments

**Q.** For YARAAARQARAFMAAAHIVAAATLAALLQERE [EJ8], which solubility of peptide (Peptide solubility) is on record?
**A.** insoluble

**Q.** With “SAH5-EJ1: stapled EJ1: PTD4 domain combined with SEQ ID NO: 103 (YARAAARQARAFMRRRHIVRKR[R8]LRRLLQ[S5]RE; staple 23-30 (inferred))” as the molecule, how does the “concentration inducing optimal cell killing” value (SKOV3 cells; SKOV3, one hour of treatment) read?
**A.** 5.0 to 10.0 µM

**Q.** And the “cell killing (MTT)” value (SKOV3 cells; SKOV3, one hour, 10 uM to 40 uM)?
**A.** all cells were killed

**Q.** Which “survival rate of cells after 3 days” value (MDA-MB-468 cells) does the source give for YARAAARQARAFMRRRHIVRKRTLRRLLQERE [EJ1] here?
**A.** 5%

**Q.** What about the “reduction of cellular viability” value (T47D cells) of the same molecule?
**A.** 60%

**Q.** What about the “reduction of cellular viability” value (AsPC1 cells) of the same molecule?
**A.** 10%

**Q.** What about the “reduction of cellular viability” value (MDA-MB-231 cells) of the same molecule?
**A.** 10%

**Q.** What about the “reduction of cellular viability” value (MIA PaCa-2 cells) of the same molecule?
**A.** 1%

**Q.** What about the “toxicity (weight loss, grooming behavior, gross changes to organs upon necropsy)” value [1] of the same molecule?
**A.** no toxicity

**Q.** What does the source list for CC[C@H](C)[C@H](NC(=O)[C@H](Cc1c[nH]cn1)NC(=O)[C@H](CCCNC(=N)N)NC(=O)[C@H](CCCNC(=N)N)NC(=O)[C@H](CCCNC(=N)N)NC(=O)[C@H](CCSC)NC(=O)[C@H](Cc1ccccc1)NC(=O)[C@H](C)NC(=O)[C@H](CCCNC(=N)N)NC(=O)[C@H](C)NC(=O)[C@H](CCC(N)=O)NC(=O)[C@H](CCCNC(=N)N)NC(=O)[C@H](C)NC(=O)[C@H](C)NC(=O)[C@H](C)NC(=O)[C@H](CCCNC(=N)N)NC(=O)[C@H](C)NC(=O)[C@@H](N)Cc1ccc(O)cc1)C(=O)N[C@]1(C)CCCCCCC=CCCC[C@@](C)(C(=O)N[C@@H](CC(C)C)C(=O)N[C@@H](CC(C)C)C(=O)N[C@@H](CCC(N)=O)C(=O)N[C@@H](CCC(=O)O)C(=O)N[C@@H](CCCNC(=N)N)C(=O)N[C@@H](CCC(=O)O)C(=O)O)NC(=O)[C@H](CCCNC(=N)N)NC(=O)[C@H](CC(C)C)NC(=O)[C@H]([C@@H](C)O)NC(=O)[C@H](CCCNC(=N)N)NC(=O)[C@H](CCCCN)NC(=O)[C@H](CCCNC(=N)N)NC1=O [SAH-EJ1] (H-YARAAARQARAFMRRRHI[R8]RKRTLR[S5]LLQERE-OH; staple 19-26; N-terminus and C-terminus assumed)?
**A.** tumor growth in vivo (GBM tumors): growth of the tumor is reduced; tumor growth in vivo (GBM tumors; listed as stapled EJ): decrease tumor growth; cell viability of patient-derived glioma lines ([2]; BT145 and BT147 (FIG. 13A)): decrease in viability; cell viability of patient-derived glioma lines ([2]; GB16, GB7, GB42 and BT147, 24 hr treatment (FIG. 13B)): decrease in viability; Kd (Ecyl EGFR peptide; 100 uM and 150 uM experiments, read-out: Kd, average of both experiments): ~2850 nM; Kd (Ecyl EGFR peptide; peptide at 100 uM, target at 500 uM, read-out: Kd): 2500 nM; Kd (Ecyl EGFR peptide; peptide at 150 uM, target at 500 uM, read-out: Kd): 3200 nM
